Results as given in US11573231B2, “Biomarker of aging” (Max-Planck-Gesellschaft zur Forderung der Wissenschaften …, priority 2017, dated 2023).

Test system: irg-1
Assay: Pirg-1GFP translation suppression reporter in worms
Type: in vivo, C. elegans
Conditions: 3-hour treatment, 2 mg/ml
From the text: DIC microscopy was used to perform all the nucleolar imaging. Hypodermal cells of age-matched day 1 adults were imaged using 100× magnification with Olympus IX81. Freehand tool software from Fiji was used for nucleolar area quantification. FIB-1::GFP, HLH-30::GFP and N2+Pirg-1GFP worms were imaged using Olympus IX81 and Axio Imager Z1(Zeiss).

`C[C@@H]1C[C@@H]([C@H](O)CC2CC(=O)NC(=O)C2)C(=O)[C@@H](C)C1` [cycloheximide] was tested, and the Pirg-1GFP reporter induction was “induced” and the Pirg-1GFP reporter induction (listed as Cyclohexamide) was “strongly induced”.
